Source: the RepoRT retention time repository

Assay: Waters XBridge BEH C18, 150 × 1 mm, 1.7 µm, 30 °C, 0.04 mL/min, estimated dead time 1.9 min; A: 79.7% water + 20% methanol + 0.3% acetic acid; B: 99.7% methanol + 0.3% acetic acid; gradient (min/%B) 0/0 17/58.7 17.2/100 20.2/100
Conditions: stereoisomer not certain

| SMILES | LC retention time |
| --- | --- |
| CNC(C)C(=O)c1ccccc1 (stereo unspecified) | 5.6 min |
| CCC(=O)OC(Cc1ccccc1)(c1ccccc1)C(C)CN(C)C (stereo unspecified) | 19.6 min |
| CC(=O)OC1C=CC2C3Cc4ccc(O)c5c4C2(CCN3C)C1O5 (stereo unspecified) | 6.4 min |
| CN1C(=O)CCC1c1cccnc1 (stereo unspecified) | 3.6 min |
| COc1ccc2c3c1OC1C(=O)CCC4(O)C(C2)N(C)CCC314 (stereo unspecified) | 5.4 min |
| CN(C)CCC=C1c2ccccc2CSc2ccccc21 | 19.2 min |
| c1ccc(CN2CCNCC2)cc1 | 4.3 min |
| CCC(=O)C(CC(C)N(C)C)(c1ccccc1)c1ccccc1 (stereo unspecified) | 20.2 min |
| CCOP(=O)(Sc1ccccc1)Sc1ccccc1 | 16.7 min |
| CCNC(C)Cc1ccc2c(c1)OCO2 (stereo unspecified) | 9.4 min |
| CCN(CC)C(=O)C1C=C2c3cccc4[nH]cc(c34)CC2N(C)C1 (stereo unspecified) | 13.8 min |
| Nc1ccc2c(c1)C(c1ccccc1)=NCC(=O)N2 | 6.2 min |
| CNC(C)Cc1ccc2c(c1)OCO2 (stereo unspecified) | 8.3 min |
| COc1cccc(C2(O)CCCCC2CN(C)C)c1 (stereo unspecified) | 11.4 min |
| COC(=O)C1C2CCC(CC1OC(=O)c1ccccc1)N2 (stereo unspecified) | 12.8 min |
| COc1ccc2c3c1OC1C(O)C=CC4C(C2)N(C)CCC341 (stereo unspecified) | 4.8 min |
| CN1C2CCC1C(C(=O)O)C(OC(=O)c1ccccc1)C2 (stereo unspecified) | 10.7 min |
| CNC(C)Cc1ccccc1 (stereo unspecified) | 7.9 min |
| CNC(C)C(O)c1ccccc1 (stereo unspecified) | 5.9 min |
| CC(=O)Oc1ccc2c3c1OC1C(OC(C)=O)C=CC4C(C2)N(C)CCC341 (stereo unspecified) | 11.4 min |
| CCC(=O)OC(Cc1ccccc1)(c1ccccc1)C(C)CNC (stereo unspecified) | 20.1 min |
| COc1ccc2c3c1OC1C(O)CCC4C(C2)N(C)CCC341 (stereo unspecified) | 4.6 min |
| CCC(N)Cc1ccc2c(c1)OCO2 (stereo unspecified) | 10.3 min |

| SMILES | LC retention time |
| --- | --- |
| Cc1ccccc1-n1c(C)nc2ccccc2c1=O | 20.2 min |
| CN1CCC23c4c5ccc(O)c4OC2C(O)C=CC3C1C5 (stereo unspecified) | 3.5 min |
| O=C1CN=C(c2ccccc2)c2cc([N+](=O)[O-])ccc2N1 | 19.8 min |
| COc1ccc2c3c1OC1C(O)C=CC4C(C2)NCCC341 (stereo unspecified) | 5.1 min |
| CN1CCCC1c1cccnc1 (stereo unspecified) | 3.3 min |
| CN1CCC23c4c5ccc(O)c4OC2C(=O)CCC3(O)C1C5 (stereo unspecified) | 3.6 min |
| Cn1c(=O)[nH]c2ncn(C)c2c1=O | 6.1 min |
| Oc1ccc2c3c1OC1C(O)C=CC4C(C2)NCCC341 (stereo unspecified) | 3.5 min |
| CN1C2CC=C(C(=O)O)C1CC2 (stereo unspecified) | 3 min |
| CC(N)Cc1ccccc1 (stereo unspecified) | 7.5 min |
| COC12CCC3(CC1C(C)(O)C(C)(C)C)C1Cc4ccc(O)c5c4C3(CCN1CC1CC1)C2O5 (stereo unspecified) | 17.3 min |
| CC(N)Cc1ccc2c(c1)OCO2 (stereo unspecified) | 8.1 min |
| CCCc1nn(C)c2c(=O)[nH]c(-c3cc(S(=O)(=O)N4CCN(C)CC4)ccc3OCC)nc12 | 18.8 min |
| COC(=O)C1=CCC2CCC1N2C (stereo unspecified) | 3.6 min |
| Cn1c(=O)c2c(ncn2C)n(C)c1=O | 9 min |
| CNCC1CCCCC1(O)c1cccc(OC)c1 (stereo unspecified) | 12.5 min |
| c1ccc(C2(N3CCCCC3)CCCCC2)cc1 | 14.7 min |
| CCC(Cc1ccc2c(c1)OCO2)NC (stereo unspecified) | 10.3 min |
| COc1ccc(C(CN(C)C)C2(O)CCCCC2)cc1 (stereo unspecified) | 15.4 min |
| CCOC(=O)C1C(OC(=O)c2ccccc2)CC2CCC1N2C (stereo unspecified) | 13.9 min |
| COC(=O)C1C(OC(=O)c2ccccc2)CC2CCC1N2C (stereo unspecified) | 11.8 min |
| CC(N)C(O)c1ccccc1 (stereo unspecified) | 5.2 min |
| COc1cc(CCN)cc(OC)c1OC | 7 min |
